Patent publication US20200096524A1, “PLASMA AND LIVER LIPID SPECIES AS BIOMARKERS OF FATTY LIVER” (École Polytechnique Fédérale de Lausanne (EPFL), priority 2017, published 2020)

Legend:
[1] = tested on: high-fat high-sucrose (HFHS) diet induced fatty liver disease; details: previously shown; by boosting NAD+ levels and enhancing mitochondrial function; cited from earlier work
[2] = tested on: C57BL/6J mice fed HFHS diet (fatty liver); assay: high-fat high-sucrose (HFHS) diet induced NAFLD mouse model, therapeutic NR supplementation, liver lipidomics; type: in vivo
Excerpt: (A-C) C57BL/6J mice: (A) Schematic illustration of the three experimental groups used for validation of the NAFLD signatures; mice on CD (green), mice on HFHS diet from 7-25 weeks (grey), mice starting HFHS diet at 7 weeks and treated with nicotinamide riboside (NR) 9 weeks after the start of HFHS diet till the end of the study (for 9 weeks—therapeutic intervention, magenta). (B) Liver total TAG concentration (normalized to liver weight). […] (D-E) Human subjects: (D) PCA of 55 TAG species measured in human plasma from healthy, steatosis and NASH patients. (E) Plasma total TAG levels in human samples. (F-G) BXDs: (F) Correlation matrix showing the Pearson correlation of Atgl mRNA expression in four different metabolic tissues with the pro- and anti-NAFLD TAG signatures in plasma (left) and liver (right) for both diets. (G) Gene ontology biological processes (GO BP) associated with NAFLD TAG signatures. […] Red and blue cells represent the enriched pathways with the positively (scale bar: log 10 p-value) and negatively (scale bar: −log 10 p-value) correlated liver transcripts respectively. For B and E differences in mean TAG levels were compared using two-sample t tests. *p<0.05, **p<0.01, ***p<0.001.
(A) Levels of pro- and anti-NAFLD signatures in C57BL/6J mice fed on CD, high-fat high-sucrose-diet (HFHS) and HFHS diet supplemented with NR, 9 weeks after the initiation of HFHS diet (HFHS+NR). (B) Pearson correlation matrix of the pro- and anti-NAFLD signatures with NAFLD readouts including the NAS score (NAFLD activity score) and liver NAD+ levels. (C) Levels of plasma NAFLD signatures in human subjects with various degrees of NAFLD. (D) Pearson correlation matrix of the NAFLD signatures with NAFLD readouts in human subjects. (E) Pearson correlation of Atgl expression in subcutaneous WAT with pro- and anti-NAFLD plasma TAG signatures in BXD strains. For mice: n=6-9 per group. For human subjects: n=12, healthy; n=7, steatosis; n=14, early stage NASH; n=11, advanced stage NASH. Differences in mean TAG species were compared using two-sample t tests. *p<0.05, **p<0.01, ***p<0.001.
(A) Correlation diagram (corrgram) showing diet-independent association of lipid species with liver mass. […] Note that the CLs—CL(LOOPo), CL(LLPoP) and CL(OOOP)—are shown in the figure with an additional CL species because the two are isobaric and inseparable chromatographically. (F) Corrgram showing negative correlation of obesity and NAFLD traits with healthy CL species and positive correlation with unhealthy CL species.
It was then tested the relevance of these lipids as signatures of fatty liver in a different mouse model of NAFLD (induced by high-fat high-sucrose (HFHS) diet) and tested whether a NAFLD lowering therapeutic intervention, i.e. nicotinamide adenine dinucleotide (NAD^+) precursor, nicotinamide riboside (NR), impacts these lipid markers. As such, the liver lipids were compared of mice fed CD or HFHS diet for 18 weeks, or mice that were fed HFHS diet supplemented with NR 9 weeks after the start of HFHS diet when they had already developed NAFLD (a therapeutic intervention, HFHS+NR) (FIG. 11A). […] Of all the TAG species measured, only 53% were increased in HFHS cohort while 33% were decreased and 14% unchanged (data not shown). […] Importantly, the pro-NAFLD lipids correlated positively, whereas the anti-NAFLD lipids correlated negatively with clinical NAFLD readouts (FIG. 12B).
It was next tested whether this change in the profile of nine CL species is a general phenomenon in other dietary-induced models of hepatic steatosis and mitochondrial dysfunction and if the profile can be reverted by ameliorating hepato-steatosis via enhancing mitochondrial function. It has been previously shown that nicotinamide riboside (NR) treatment ameliorates high-fat high-sucrose (HFHS) diet induced fatty liver disease by boosting nicotinamide adenine dinucleotide (NAD+) levels and thereby enhancing mitochondrial function. […]

Structure (SMILES): NC(=O)c1ccc[n+]([C@@H]2O[C@H](CO)[C@@H](O)[C@H]2O)c1 [NR, nicotinamide riboside]
- HFHS diet induced fatty liver disease [1]: ameliorates
- liver anti-NAFLD lipids (TAGs 52:5, 52:4, 54:6) ([2]; C57BL/6J mice, HFHS+NR vs HFHS, FIG. 12A): increased the anti-NAFLD lipids only to a slight extent
- liver levels of healthy CLs (CL(LLLL), MLCL(LLL)) ([2]; C57BL/6J mice, HFHS+NR vs HFHS, FIG. 13D): increased
- liver levels of unhealthy CLs (MLCL(LOO), MLCL(LLO), CL(LOOPo), CL(LLPoP), CL(LOOO), CL(OOOP)) ([2]; C57BL/6J mice, HFHS+NR vs HFHS, FIG. 13E): decreased
- liver total TAG concentration ([2]; C57BL/6J mice, HFHS+NR vs HFHS, NR added 9 weeks after start of HFHS diet, 18 weeks total, FIG. 11B): decreased
- liver pro-NAFLD lipids (TAGs 52:2, 54:3, 56:3, 50:2) ([2]; C57BL/6J mice, HFHS+NR vs HFHS, lowered: TAGs 54:3, 56:3, 50:2, FIG. 12A): significantly lowered three of the four pro-NAFLD lipids
- liver NAD+ levels ([2]; steatotic livers of HFHS mice, after NR treatment, FIG. 12B): replenished
